Where “and” joins values, the source holds several entries; their conditions need not be identical. Equal entries are not always repeated. Where two headings read alike, the source gives them in different places.
Key:
[1] = target: T1, CYP3A4 (Homo sapiens, UniProt P08684); test: Part D: effect of steady-state tucatinib on pharmacokinetics of midazolam; conditions: for clinical classification as inhibitor of CYP3A/CYP3A4: steady-state tucatinib 300 mg BID, midazolam probe
[2] = target: CYP2C9 (Homo sapiens, UniProt P11712); test: Part D: effect of steady-state tucatinib on pharmacokinetics of tolbutamide
Sequence of CYP2C9 (Homo sapiens, UniProt P11712) (P11712 whole entry): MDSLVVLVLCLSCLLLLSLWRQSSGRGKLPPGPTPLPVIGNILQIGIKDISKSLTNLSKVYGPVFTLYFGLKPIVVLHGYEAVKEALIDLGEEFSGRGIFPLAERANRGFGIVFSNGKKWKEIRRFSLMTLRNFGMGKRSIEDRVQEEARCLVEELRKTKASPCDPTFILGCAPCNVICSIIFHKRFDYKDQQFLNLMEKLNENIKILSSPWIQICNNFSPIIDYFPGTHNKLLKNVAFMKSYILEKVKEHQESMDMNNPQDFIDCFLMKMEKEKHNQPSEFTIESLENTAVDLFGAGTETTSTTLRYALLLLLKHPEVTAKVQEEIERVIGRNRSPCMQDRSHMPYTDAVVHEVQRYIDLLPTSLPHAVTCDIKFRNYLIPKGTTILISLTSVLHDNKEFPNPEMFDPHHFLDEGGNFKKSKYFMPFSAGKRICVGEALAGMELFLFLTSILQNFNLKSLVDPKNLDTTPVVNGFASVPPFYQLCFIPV

[3] = target: P-glycoprotein (P-gp) (Homo sapiens, UniProt P08183); test: Part E: effect of steady-state tucatinib on pharmacokinetics of digoxin; type: in vivo; conditions: for clinical classification as inhibitor of P-glycoprotein: steady-state tucatinib 300 mg BID, digoxin probe
Sequence of P-glycoprotein (P-gp) (Homo sapiens, UniProt P08183) (P08183 whole entry): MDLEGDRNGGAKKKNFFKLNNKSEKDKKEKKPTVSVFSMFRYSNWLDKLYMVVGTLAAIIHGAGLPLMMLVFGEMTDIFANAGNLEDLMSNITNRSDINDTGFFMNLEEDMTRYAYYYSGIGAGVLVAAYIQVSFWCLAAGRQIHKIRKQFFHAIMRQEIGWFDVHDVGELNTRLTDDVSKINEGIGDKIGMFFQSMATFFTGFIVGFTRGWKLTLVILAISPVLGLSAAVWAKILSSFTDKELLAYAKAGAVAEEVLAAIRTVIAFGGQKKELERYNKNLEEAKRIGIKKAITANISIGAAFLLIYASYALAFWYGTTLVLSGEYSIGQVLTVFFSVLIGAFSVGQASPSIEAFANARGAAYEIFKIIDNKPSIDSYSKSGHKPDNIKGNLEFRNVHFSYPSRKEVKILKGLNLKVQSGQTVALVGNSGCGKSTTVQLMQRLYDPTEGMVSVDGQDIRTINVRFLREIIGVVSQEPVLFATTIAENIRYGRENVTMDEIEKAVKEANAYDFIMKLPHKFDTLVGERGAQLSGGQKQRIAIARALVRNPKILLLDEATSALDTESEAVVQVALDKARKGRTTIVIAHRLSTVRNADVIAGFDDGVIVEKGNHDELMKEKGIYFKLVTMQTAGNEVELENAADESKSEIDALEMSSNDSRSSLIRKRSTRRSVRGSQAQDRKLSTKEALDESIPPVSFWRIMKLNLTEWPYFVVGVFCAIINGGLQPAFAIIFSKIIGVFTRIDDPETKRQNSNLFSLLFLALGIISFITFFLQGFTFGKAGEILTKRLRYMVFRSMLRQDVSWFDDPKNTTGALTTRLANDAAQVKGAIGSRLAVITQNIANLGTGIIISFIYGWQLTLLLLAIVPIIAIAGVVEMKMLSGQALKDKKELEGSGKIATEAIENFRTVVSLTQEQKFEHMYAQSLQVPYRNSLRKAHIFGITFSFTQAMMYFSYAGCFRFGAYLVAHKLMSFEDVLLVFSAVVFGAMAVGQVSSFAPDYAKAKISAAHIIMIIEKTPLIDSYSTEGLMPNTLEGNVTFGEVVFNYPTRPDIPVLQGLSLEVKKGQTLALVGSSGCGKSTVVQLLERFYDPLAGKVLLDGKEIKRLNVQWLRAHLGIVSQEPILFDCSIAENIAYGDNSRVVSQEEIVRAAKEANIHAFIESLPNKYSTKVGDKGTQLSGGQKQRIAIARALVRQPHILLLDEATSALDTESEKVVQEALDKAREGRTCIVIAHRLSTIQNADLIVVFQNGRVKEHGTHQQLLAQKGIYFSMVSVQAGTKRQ

[4] = humans, cited from earlier work
[5] = target: T1, CYP3A4; test: Part A: effect of itraconazole; type: in vivo
[6] = tested on: CYP3A4/CYP2C8; test: Part B: effect of rifampin; type: in vivo, human
[7] = target: T2, CYP2C8 (Homo sapiens, UniProt P10632)
T2 sequence (P10632 1-490): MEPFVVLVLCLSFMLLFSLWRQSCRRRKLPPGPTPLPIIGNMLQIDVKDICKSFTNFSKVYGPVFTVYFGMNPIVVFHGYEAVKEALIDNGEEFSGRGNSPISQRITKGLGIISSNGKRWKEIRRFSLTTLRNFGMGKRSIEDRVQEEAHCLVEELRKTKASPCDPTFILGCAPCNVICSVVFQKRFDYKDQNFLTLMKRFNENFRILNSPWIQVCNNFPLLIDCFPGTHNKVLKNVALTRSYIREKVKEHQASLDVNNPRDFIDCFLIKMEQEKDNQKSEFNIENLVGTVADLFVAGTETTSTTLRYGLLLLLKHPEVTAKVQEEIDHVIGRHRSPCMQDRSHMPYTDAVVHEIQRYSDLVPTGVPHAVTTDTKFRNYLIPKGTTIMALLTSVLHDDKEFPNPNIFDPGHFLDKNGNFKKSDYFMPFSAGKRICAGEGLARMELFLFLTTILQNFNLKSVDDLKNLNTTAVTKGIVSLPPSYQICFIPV

[8] = target: T2, CYP2C8; conditions: for clinical classification as inhibitor of CYP2C8: steady-state tucatinib 300 mg BID, repaglinide probe
[9] = tested on: CYP3A4; conditions: in vitro; cited from earlier work
[10] = Safety assessments; type: in vivo, human
[11] = tested on: CYP2C9; conditions: in vitro; cited from earlier work
[12] = cited from earlier work
[13] = tested on: CYP2C8; type: in vivo, human; conditions: 84 subjects enrolled in this study; regardless of phenotype
[14] = tested on: P-glycoprotein (P-gp); conditions: in vitro; cited from earlier work
[15] = tested on: CYP2C8; conditions: in vitro; cited from earlier work
[16] = with tucatinib vs tolbutamide/midazolam alone
[17] = tolbutamide/midazolam + tucatinib vs tolbutamide/midazolam alone
[18] = digoxin + tucatinib vs digoxin alone
[19] = coadministration of itraconazole vs tucatinib alone
[20] = in the presence of rifampin vs tucatinib alone
[21] = following gemfibrozil vs tucatinib alone
[22] = tucatinib + itraconazole vs tucatinib alone
[23] = tucatinib + rifampin vs tucatinib alone
[24] = tucatinib + gemfibrozil vs tucatinib alone

T1 sequence (P08684 whole entry): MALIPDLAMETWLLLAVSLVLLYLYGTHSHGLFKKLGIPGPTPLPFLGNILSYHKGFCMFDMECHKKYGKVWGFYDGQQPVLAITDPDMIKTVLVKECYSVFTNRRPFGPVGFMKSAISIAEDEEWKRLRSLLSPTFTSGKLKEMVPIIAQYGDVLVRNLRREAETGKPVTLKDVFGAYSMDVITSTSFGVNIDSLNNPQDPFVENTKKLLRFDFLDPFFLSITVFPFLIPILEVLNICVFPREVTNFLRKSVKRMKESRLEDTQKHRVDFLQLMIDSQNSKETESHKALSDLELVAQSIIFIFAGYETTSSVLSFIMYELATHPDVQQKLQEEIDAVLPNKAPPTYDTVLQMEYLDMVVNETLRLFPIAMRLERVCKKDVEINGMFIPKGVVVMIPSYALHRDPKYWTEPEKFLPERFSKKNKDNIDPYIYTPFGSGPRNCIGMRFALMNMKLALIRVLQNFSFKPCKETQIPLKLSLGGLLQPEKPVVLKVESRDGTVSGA

OCc1ncc2n1-c1ccc(Cl)cc1C(c1ccccc1F)=NC2 [1-hydroxymidazolam]
effect of tucatinib on exposure based on AUC0–last and AUC0–inf [1, 16]: no effect
reduction of Cmax [1, 16]: approximately 40%

CCCCNC(=O)NS(=O)(=O)c1ccc(CO)cc1 [4-hydroxytolbutamide, reference compound]
plasma exposures with vs without tucatinib [2, 17]: Similar

C[C@H]1O[C@@H](O[C@H]2[C@@H](O)C[C@H](O[C@H]3[C@@H](O)C[C@H](O[C@H]4CC[C@@]5(C)[C@H](CC[C@@H]6[C@@H]5C[C@@H](O)[C@]5(C)[C@@H](C7=CC(=O)OC7)CC[C@]65O)C4)O[C@@H]3C)O[C@@H]2C)C[C@H](O)[C@@H]1O [Digoxin, digoxin]
increase in plasma exposure based on AUC0–inf [3, 18]: approximately 1.5 fold
increase in plasma exposure based on AUC0–last [3, 18]: approximately 1.5 fold
increase in plasma exposure based on Cmax [3, 18]: ~2.4 fold

Cc1ncc2n1-c1ccc(Cl)cc1C(c1ccccc1F)=NC2 [Midazolam, midazolam]
increase in plasma exposure based on AUC0–inf [1, 17]: 5.7 fold and > 5 fold
increase in plasma exposure based on AUC0–last [1, 17]: 5.3 fold
increase in plasma exposure based on Cmax [1, 17]: 3.0 fold
reduction of metabolic ratio for AUC0–inf [1, 16]: approximately 83%
reduction of metabolic ratio for Cmax [1, 16]: ~80%

Cc1cc(Nc2ncnc3ccc(NC4=NC(C)(CO)CO4)cc23)ccc1Oc1ccn2ncnc2c1 (stereo not shown) [ONT-993]
radioactive component in feces, share of the dose ([4]; feces): 37%
radioactive component in urine, share of the dose ([4]; urine): 1.5%
geometric least squares mean ratio for AUC0–inf [5, 19]: 1.6
geometric least squares mean ratio for Cmax [5, 19]: 2.0
metabolic ratio for AUC0–inf, fold higher [6, 20]: 1.4 fold
metabolic ratio for Cmax, fold higher [6, 20]: 3.3 fold
decrease of metabolic ratio for AUC0–inf [7, 21]: approximately 71%
decrease of metabolic ratio for Cmax [7, 21]: ~81%

CCOc1cc(CC(=O)N[C@@H](CC(C)C)c2ccccc2N2CCCCC2)ccc1C(=O)O [Repaglinide, repaglinide, reference compound]
increase in plasma exposure based on Cmax ([8]; repaglinide + tucatinib vs repaglinide alone): ~1.7 fold

Cc1cc(Nc2ncnc3ccc(NC4=NC(C)(C)CO4)cc23)ccc1Oc1ccn2ncnc2c1 [Tucatinib]
inactivation of CYP3A [9]: time/metabolism-dependent inactivation
type of inhibition of CYP3A4 [9]: competitive inhibition
impact on CYP2C9-mediated metabolism in humans ([2]; steady-state tucatinib 300 mg BID, tolbutamide probe): no impact
participants with serum creatinine increases ([10]; Part A): 50%
participants with serum creatinine increases ([10]; Part B): 4%
participants with serum creatinine increases ([10]; Part D): 71%
participants with serum creatinine increases ([10]; Part E): 54%
Grade 3 or higher events ([10]; Parts A through E overall): No Grade 3 or higher events
TEAEs considered Grade 1 (events) ([10]; Parts A through E overall): 65
total number of TEAEs ([10]; Parts A through E overall): 71
subjects reporting TEAEs ([10]; Parts A through E overall, 37 of 114 subjects): 32.5%
tolerability ([10]; Parts A–E, alone and with co-administered drugs): well tolerated
events of ALT elevation reported as Grade 1 TEAEs ([10]; Parts D and E): five
renal function by cystatin C levels ([10]; Parts D and E): did not reveal any elevated values
type of inhibition of CYP2C9 [11]: competitive inhibition
clinical classification as inhibitor of P-glycoprotein [3]: weak inhibitor
clinical classification as inhibitor of P-glycoprotein ([3]; listed as tucatinib): only weakly inhibits
increase in plasma exposure based on AUC0–inf [5, 22]: ~ 1.3 fold
increase in plasma exposure based on AUC0–last [5, 22]: approximately 1.3 fold
increase in plasma exposure based on Cmax [5, 22]: approximately 1.3 fold
impact of food on tucatinib exposures [12]: no clinically relevant impact
clinical classification as inhibitor of CYP3A/CYP3A4 [1]: strong inhibitor
clinical classification as inhibitor of CYP3A/CYP3A4 ([1]; listed as tucatinib): strong CYP3A4 inhibitor
tucatinib exposures by CYP2C8 metabolizer phenotype [13]: similar
decrease in plasma exposure based on AUC0–inf [6, 23]: 48%
decrease in plasma exposure based on AUC0–last [6, 23]: approximately 48%
decrease in plasma exposure based on Cmax [6, 23]: ~37%
decrease in plasma exposure based on AUC0–inf ([6]; tucatinib + rifampin vs tucatinib alone, listed as tucatinib): approximately 48%
increase in plasma exposure based on AUC0–inf [7, 24]: ~3.0 fold
increase in plasma exposure based on AUC0–last [7, 24]: approximately 3.0 fold
increase in plasma exposure based on Cmax [7, 24]: ~1.6 fold
clinical classification as inhibitor of CYP2C8 [8]: weak inhibitor
clinical classification as inhibitor of CYP2C8 ([8]; listed as tucatinib): only weakly inhibits
type of inhibition of P-glycoprotein (P-gp) [14]: competitive inhibition
type of inhibition of CYP2C8 [15]: competitive inhibition

Reference: publication PMC9553805 (Clinical Pharmacokinetics, 2022)
